According to patent US4374261A, “1-Ethyl-1,4-dihydro-6-(2-naphthyl)-4-oxo-nicotinic acid and esters thereof” (Hoffmann-La Roche Inc., priority 1981, dated 1983):

How the values were obtained:
mouse = test: LD50 (mouse), acute toxicity; assay type: in vivo
rat = test: Turning rat test (unilateral 6-OHDA lesion of the medial forebrain bundle); assay type: in vivo
Protocol: Female rats weighing 150 g are anaesthetised with pentobarbital (50 mg kg^-1 i.p.) and fixed in a stereotaxic apparatus (David Kopf). A unilateral (right side) injection into the MFB (medial forebrain bundle) or 6-OHDA (6-hydroxy-dopamine), 3 μg as base, dissolved in 4 μl of Ringer solution containing 0.02% ascorbic acid, is carried out through a stainless-steel cannula (diameter 0.3 mm) connected to a microsyringe. The liquid is injected at a speed of 1 μl min^-1 by means of a high precision infusion pump. In order to reach the MFB (medial forebrain bundle), the following conditions are used: A=+3.8 mm, L (right)=0.9 mm, V=-3 mm according to the Atlas of Konig and Klippel.
After 3 weeks recovery period, the operated rats are injected with apomorphine, 1 mg kg^1- i.p.. Those animals showing a regular contralateral (i.e., away from the lesioned side) turning, recorded automatically during 1 hour in a rotometer, are selected for further experiments. At least one week is allowed between each injection of screening compounds. […]
The total number of ipsilateral or contralateral turns (full rotation around the vertical axes of the body) made by each rat, is automatically recorded over the time (usually 1 hour). 5 rats are injected for each dose and the mean of total turns per hour is determined.
A compound is said active, if it produces more than 100 turns/hour. […] The results are expressed as: […]

[1] = vs d-amphetamine and d-methamphetamine (Table I)

CCn1cc(C(=O)O)c(=O)cc1-c1ccc2ccccc2c1 [1-ethyl-1,4-dihydro-6-(2-naphthyl)-4-oxonicotinic acid]
LD50 compared with d-amphetamine and d-methamphetamine (mouse; [1]): substantially lower LD50 | LD50 compared with nomifensin (mouse; vs nomifensin): about the same LD50 | strength of action compared with d-amphetamine and d-methamphetamine (rat; [1]): about the same strength of action | activity compared with nomifensin (rat; vs nomifensin): substantially superior to nomifensin
